# Source: patent publication US7947854B2, “Bis-cationic compounds and use thereof” (The University of Sydney, priority 2003, dated 2011)
# Where two headings read alike, the source gives them in different places.
# Legend:
# [1] = system: Candida albicans ATCC 10231; experiment: Antifungal susceptibility testing, microdilution MIC; format: cell-based
# Procedure: (§1) Antifungal susceptibility testing. The antifingal activity of the compounds was measured by a standard microdilution method. […] The fungal strains tested included Cryptococcus neoformans H99, Cryptococcus neoformans ATCC 90112 and Candida albicans ATCC 10231. All tests were performed in duplicate.
# (§2) A range of cationic compounds were assayed for antifungal activity in a standardised serial dilution sensitivity test against C. neoformans ([…]) and C. Albicans (ATCC 10231).
# erythrocyte = format: cell-based; settings: 37° C., 1 h
# Procedure: Human blood was collected in 10 mL Vacutainer tubes containing potassium-EDTA as anticoagulant. The blood from each vacutainer was transferred to a 50 mL centrifuge tube and the cells washed three times with calcium- and magnesium-free phosphate buffered saline (PBS) (Gibco) by centrifugation at 2000×g for 15 min. The third supernatant was clear and colourless. Cells were stored in PBS for up to two weeks. The cell suspension in PBS (0.5 mL) was mixed with a stock solution of test substance (0.5 mL) at the appropriate concentration (final erythrocyte concentration of approx. 0.5×10^9 per mL). The mixtures were incubated at 37° C. for 1 h with gentle shaking, then centrifuged at 2000×g for 10 min. The supernatant was diluted 10-fold with PBS and the optical density measured at 540 nm. The values for 0% and 100% lysis were determined by incubating cells with PBS or 0.1% Triton X-100 (in water), respectively. Assays were carried out in triplicate.
# [2] = system: Cryptococcus neoformans ATCC 90112; experiment: Antifungal susceptibility testing, microdilution MIC; format: cell-based
# Procedure: as §1, §2
# [3] = system: secreted phospholipase B (PLB activity); experiment: Radiometric assay, secreted PLB activity; format: biochemical, Cryptococcus neoformans H99
# Procedure: (§3) Fungal isolates and media. […] Isolate H99 was kindly supplied by Dr. Gary Cox (Duke University Medical Center, Durham, N.C., USA), and subcultured onto Sabouraud dextrose agar (SDA) at 30° C.
# (§4) Preparation of supernatants containing secreted phospholipase activities. Isolate H99 was grown to confluence on SDA in 16 cm diameter Petri dishes for 72 h at 30° C. in air. Cells scraped from 10-20 dishes were washed sequentially with isotonic saline and imidazole buffer (10 mM imidazole, 2 mM CaCl2, 2 mM Mg Cl2, 56 mM D-Glucose, made up in isotonic saline, pH 5.5), resuspended in a volume of this buffer of about 10% of the cell volume, and incubated for 24 h at 37° C. The cell-free supernatant was separated by centrifugation as previously described and stored at −70° C.
# Radiometric assay method for phospholipases. Enzyme activities were measured as described previously in a final volume of 125 μL at 37° C. For the determination of secreted PLB activity, carrier dipalmitoyl phosphatidylcholine (DPPC, final concentration 800 μM) and 1,2-di[1-^14C] palmitoyl phosphatidylcholine (20,000 dpm) were dried under nitrogen and suspended in 125 mM imidazole acetate buffer (assay buffer, pH 4.0) by sonication using a Branson 450 sonifier. The reaction time was 22 min, using 1 μg total protein and PLB activity was determined by the rate of decrease of the radiolabelled PC substrate, with appearance of the label in free fatty acid. This assay also simultaneously allows for the determination of phospholipase A, C and D activities. These activities were measured by the appearance of radiolabel from PC in Lyso PC, diacylglycerol and phosphatidic acid, respectively.
# (§5) All reactions were terminated by adding 0.5 mL of chloroform:methanol (2:1 v/v). The reaction products were extracted by the method as disclosed in Bligh, E. C. and W. J. Dyer. 1959 ‘A rapid method of total lipid extraction and purification.’ Can. J. Biochem. Physiol. 37:911-917, separated by TLC and quantified as previously described. In the case of PLC activity, the TLC plates were developed in petroleum ether (BP 60-80° C.): diethyl ether: acetic acid (90:15:1, v/v/v) instead of chloroform:methanol:water (65:25:4, v/v/v).
# (§6) Preparation of inhibitors and use in assays. The following compounds were tested (for structures, see FIG. 2): compound 1, 1,12-bis(tributylphosphonium)dodecane dibromide (Fluka AG, Buchs, Switzerland); compound 2, 1,10-bis(tributylammonium)-decane dibromide; compound 3, 1,12-bis(tributylammonium)do-decane dibromide (both synthesised in-house); compound 4, 1,10-bis(trimethylammonium)decane dibromide [“decamethonium”] (Sigma, St. Louis Mo., USA). All compounds were prepared as stock solutions of 700 μM in assay buffer containing 5 mM EDTA, which was then diluted serially with buffer to obtain solutions of 70, 7, 0.7 and 0.07 μM. In each assay, 45 μL of these solutions was used, and the final volume of 125 μL was made up of substrate, enzyme and buffer. The radiometric assay was carried out as above. Inhibition was calculated as the percent of substrates (DPPC or Lyso-PC) remaining in the case of PLB and LPL activities, or of DPPC produced, in the case of the LPTA activity. The amounts converted, or produced, in the inhibitor-free control were normalised to 100%, and the inhibition calculated against it. All assays were done in triplicate.
# (§7) Under these conditions only PLB, LPL and LPTA activities (both secreted and cell-associated) were measured. Initially, compounds deemed to be potential inhibitors were assayed at 25 and 250 μM. Those showing some inhibition were then also assayed at 2.5 and 0.25 μM.
# [4] = system: secreted phospholipase B (LPL/LPTA activities); experiment: Radiometric assay, secreted LPL and LPTA activities (Lyso assay); format: biochemical, Cryptococcus neoformans H99
# Procedure: as §3, §4
# Secreted LPL and LPTA activities were measured simultaneously in a reaction mixture containing 1-[^14C]palmitoyl lyso-PC (25,000 dpm) and carrier lyso-PC (final concentration 200 μM) in assay buffer. The reaction time was […] with 1 μg of total protein and LPL activity was measured by the rate of loss of 1-[^14C]palmitoyl lyso-PC with release of radiolabelled fatty acids. LPTA activity was estimated from the rate of formation of radiolabelled PC.
# as §5, §6, §7
# [5] = Candida albicans, ATCC10231, Table 7, read-out: MIC (μM) C. alb. (10231)
# [6] = Cryptococcus neoformans, ATCC90112, Table 7, read-out: MIC (μM) Crypto. (ATCC 90112)
# [7] = Table 7, read-out: MIC (μM) Crypto. (ATCC 90112)
# [8] = Table 7, read-out: MIC (μM) C. alb. (10231)
SMILES,"MIC [1, 5] [µM]",PLB assay (% inhibition) ([3]; 25 μM),PLB assay (% inhibition) ([3]; 250 μM),Lyso assay (% inhibition) LPL ([4]; 25 μM),Lyso assay (% inhibition) LPTA ([4]; 25 μM),Lyso assay (% inhibition) LPL ([4]; 250 μM),Lyso assay (% inhibition) LPTA ([4]; 250 μM),"MIC [2, 7] [µM]","MIC [1, 8] [µM]",further results
CCCCCCCCCCCCCCCC[N+](CCCC)(CCCC)CCCC,1.4,,,,,,,,,Haemolytic assay (%) (erythrocyte; 3.5 μM): 2.5%; Haemolytic assay (%) (erythrocyte; 35 μM): 4%; Haemolytic assay (%) (erythrocyte; 88 μM): 19%; Haemolytic assay (%) (erythrocyte; 175 μM): 75%; Haemolytic assay (%) (erythrocyte; 350 μM): 100%
"CCCC[N+](CCCC)(CCCC)CCCCCCCCCCC[N+](CCCC)(CCCC)CCCC [1,11-Bis-(tributylammonium)undecane dichloride]",44,,,,,,,,,"MIC [2, 6]: 22 µM"
"C[N+]1(CCCCCCCCCCCC[N+]2(C)CCOCC2)CCOCC1 [1,12-Bis-(1-methylmorpholinium)dodecane dibromide]",88,,,,,,,,,"MIC [2, 6]: 44 µM"
"C(CCCCCC[N+]12CCC(CC1)CC2)CCCCC[N+]12CCC(CC1)CC2 [1,12-Bis-(quinuclidinium)dodecane dibromide]",≥ 350,0%,5%,250 μM = 0% 25 μM = 0% 2.5 μM = 0% 0.25 μM = 0%,250 μM = 0% 25 μM = 0% 2.5 μM = 0% 0.25 μM = 0%,250 μM = 0% 25 μM = 0% 2.5 μM = 0% 0.25 μM = 0%,250 μM = 0% 25 μM = 0% 2.5 μM = 0% 0.25 μM = 0%,,,"PLB assay (% inhibition) ([3]; 0.25 μM): 0%; PLB assay (% inhibition) ([3]; 2.5 μM): 0%; Lyso assay (% inhibition) LPL ([4]; 0.25 μM): 250 μM = 0% 25 μM = 0% 2.5 μM = 0% 0.25 μM = 0%; Lyso assay (% inhibition) LPTA ([4]; 0.25 μM): 250 μM = 0% 25 μM = 0% 2.5 μM = 0% 0.25 μM = 0%; Lyso assay (% inhibition) LPL ([4]; 2.5 μM): 250 μM = 0% 25 μM = 0% 2.5 μM = 0% 0.25 μM = 0%; Lyso assay (% inhibition) LPTA ([4]; 2.5 μM): 250 μM = 0% 25 μM = 0% 2.5 μM = 0% 0.25 μM = 0%; MIC [2, 6]: 350 µM"
"CC[N+](CC)(CC)CCCCCCCCCCCC[N+](CC)(CC)CC [1,12-Bis-(triethylammonium)dodecane dibromide]",,,,,,,,,,"MIC ([2]; Cryptococcus neoformans, ATCC90112, read-out: MIC (μM) Crypto. (ATCC 90112)): 11 µM; MIC ([1]; Candida albicans, ATCC10231, read-out: MIC (μM) C. alb. (10231)): 22 µM"
"CCCCCC[N+](CCCCCC)(CCCCCC)CCCCCCCCCCCC[N+](CCCCCC)(CCCCCC)CCCCCC.[Cl-].[Cl-] [1,12-Bis-(trihexylammonium)dodecane dichloride]",,,,,,,,17.5,8.8,
"CC(C)C[N+](CCCCCCCCCCCC[N+](CC(C)C)(CC(C)C)CC(C)C)(CC(C)C)CC(C)C.[Br-].[Br-] [1,12-Bis-(triisobutylammonium)dodecane dibromide]",,250 μM = 0% 25 μM = 0% 2.5 μM = n.d. 0.25 μM = n.d.,250 μM = 0% 25 μM = 0% 2.5 μM = n.d. 0.25 μM = n.d.,250 μM = 0% 25 μM = 0% 2.5 μM = n.d. 0.25 μM = n.d.,4%,250 μM = 0% 25 μM = 0% 2.5 μM = n.d. 0.25 μM = n.d.,5%,,,MIC (μM) Crypto. (ATCC 90112) ([2]; Table 7): ≧350 μM; MIC (μM) C. alb. (10231) ([1]; Table 7): ≧350 μM
"CC(C)CC[N+](CCCCCCCCCCCC[N+](CCC(C)C)(CCC(C)C)CCC(C)C)(CCC(C)C)CCC(C)C.[Cl-].[Cl-] [1,12-Bis-(triisopentylammonium)dodecane dichloride]",,68%,63%,250 μM = 11% 25 μM = 11% 2.5 μM = n.d. 0.25 μM = n.d.,0%,250 μM = 11% 25 μM = 11% 2.5 μM = n.d. 0.25 μM = n.d.,6%,4.4,2.2,PLB assay (% inhibition) ([3]; 0.25 μM): 0%; PLB assay (% inhibition) ([3]; 2.5 μM): 9%; PLB assay (% inhibition) ([3]; 6.7 μM): 38%; PLB assay (% inhibition) ([3]; 12.5 μM): 56%
"CCCCCCCC[N+](CCCCCCCC)(CCCCCCCC)CCCCCCCCCCCC[N+](CCCCCCCC)(CCCCCCCC)CCCCCCCC.[Cl-].[Cl-] [1,12-Bis-(trioctylammonium)dodecane dichloride]",,,,,,,,35,100,
"CCCCC[N+](CCCCC)(CCCCC)CCCCCCCCCCCC[N+](CCCCC)(CCCCC)CCCCC.[Br-].[Br-] [1,12-Bis-(tripentylammonium)dodecane dibromide]",,73%,63%,250 μM = 10% 25 μM = 10% 2.5 μM = n.d. 0.25 μM = n.d.,0%,250 μM = 10% 25 μM = 10% 2.5 μM = n.d. 0.25 μM = n.d.,2.4%,5.5,5.5,PLB assay (% inhibition) ([3]; 0.25 μM): 0%; PLB assay (% inhibition) ([3]; 2.5 μM): 12%
"CC[N+](CC)(CC)CCOc1cccc(OCC[N+](CC)(CC)CC)c1OCC[N+](CC)(CC)CC [Gallamine triethiodide, reference compound]",≥ 350,,,,,,,,,Haemolytic assay (%) (erythrocyte; 3.5 μM): 350 μM = 0% 175 μM = 0% 88 μM = 0% 35 μM = 0% 3.5 μM = 0%; Haemolytic assay (%) (erythrocyte; 35 μM): 350 μM = 0% 175 μM = 0% 88 μM = 0% 35 μM = 0% 3.5 μM = 0%; Haemolytic assay (%) (erythrocyte; 88 μM): 350 μM = 0% 175 μM = 0% 88 μM = 0% 35 μM = 0% 3.5 μM = 0%; Haemolytic assay (%) (erythrocyte; 175 μM): 350 μM = 0% 175 μM = 0% 88 μM = 0% 35 μM = 0% 3.5 μM = 0%; Haemolytic assay (%) (erythrocyte; 350 μM): 350 μM = 0% 175 μM = 0% 88 μM = 0% 35 μM = 0% 3.5 μM = 0%
"C[N+]1(C)CCOC(O)(c2ccc(-c3ccc(C4(O)C[N+](C)(C)CCO4)cc3)cc2)C1 (stereo not drawn) [Hemicholinium dibromide, reference compound]",≥ 350,,,,,,,,,Haemolytic assay (%) (erythrocyte; 3.5 μM): 350 μM = 0% 175 μM = 0% 88 μM = 0% 35 μM = 0% 3.5 μM = 0%; Haemolytic assay (%) (erythrocyte; 35 μM): 350 μM = 0% 175 μM = 0% 88 μM = 0% 35 μM = 0% 3.5 μM = 0%; Haemolytic assay (%) (erythrocyte; 88 μM): 350 μM = 0% 175 μM = 0% 88 μM = 0% 35 μM = 0% 3.5 μM = 0%; Haemolytic assay (%) (erythrocyte; 175 μM): 350 μM = 0% 175 μM = 0% 88 μM = 0% 35 μM = 0% 3.5 μM = 0%; Haemolytic assay (%) (erythrocyte; 350 μM): 350 μM = 0% 175 μM = 0% 88 μM = 0% 35 μM = 0% 3.5 μM = 0%
